Measured values: US20090181920A1, “INTRATHECAL TREATMENT OF NEUROPATHIC PAIN WITH A2AR AGONISTS” (PGXHEALTH, LLC, priority 2008, published 2009)

Assays:
[1] = test system: CCI-induced allodynia; test: Chronic constriction injury (CCI) neuropathic pain model, von Frey testing after a single intrathecal injection; assay type: in vivo, Sprague Dawley rats; details: for Effect on CCI-induced allodynia relative to ATL313 and CGS21680: tested at 1 uM
Method: (§1) Saline is used as the vehicle in the experiments. All A2A agonists are dissolved in 100% DMSO to a 10 mM concentration. These are then diluted 1:10,000 with saline. The total volume of injection for all groups is 5 μL, which consists of a 1 μL air bubble, 1 μL of agonist/vehicle, 1 μL air bubble, and finally a 2 μL flush of saline. The intermediate air bubble is used to separate drug/vehicle and the flush.
Sprague Dawley rats underwent chronic constriction injury (CCI) of the sciatic nerve or sham surgery. After pre-surgery baseline testing (Day 0=D0), rats received chronic constriction injury of the left sciatic nerve at mid-thigh level to produce neuropathic pain (chronic constriction injury model: CCI). This is seen by the fall in pain threshold between days 4 and 11 (D4, D11) after surgery relative to D0. Once CCI-induced allodynia was stable as tested by von Frey filaments, the material to be studied (e.g., vehicle or A2AR agonists CGS21680 or ATL313) was injected intrathecally. After injection, behavioral testing occurred at 4, 24, and 72 h and then weekly for 6 weeks.
The results of the studies are shown in FIG. 1 with the translation of Y-axis units as follows: 5=10 grams, 4.75=5.62 grams, 4.5=3.16 grams, 4.25=[…], 4=1 gram, 3.75=0.56 grams, 3.5=0.32 grams.
Although the CCI surgery is unilateral (left sciatic nerve), the allodynia is present bilaterally. In addition, the reversal of allodynia by A2A agonism also occurs bilaterally. Therefore, ATL313 activates A2A receptors within the spinal cord altering the mechanisms leading to central sensitization.
The animals following unilateral CCI surgery of the left sciatic nerve, as noted above, have allodynia in both hind paws. For simplicity all graphs show left hind paw responses only, as the right hind paw had equivalent responses.

[2] = test system: CCI-induced allodynia; test: Blockade and reversal of A2A agonist (ATL313) by antagonist ZM241385 in the CCI model, von Frey testing; assay type: in vivo, male Sprague-Dawley rats
Method: as §1
CCI surgery and indwelling intrathecal catheters were implanted in male Sprague-Dawley rats (325-350 g, n=6/group). 10-14 days after surgery, when the allodynia is stable, an A2A antagonist (ZM241385, 10 uM, Tocris Bioscience) or vehicle was co-administered with ATL313 or vehicle. von Frey testing was done before surgery, before intrathecal injections, and 1, 2, 3, 4, 6, and 24 h after injection.
In a separate group of animals, ATL313 (1 uM) was administered 10-14 days after CCI surgery. One week after ATL313 (1 uM, i.t.) administration, ZM241385 (10 uM) or equivolume vehicle was administered intrathecally. von Frey testing was done 1, 2, 3, 4, 6 & 24 h after injection.

[3] = single intrathecal injection, 1 uM, given 10-14 days after CCI surgery, P<0.05

CCNC(=O)[C@H]1O[C@@H](n2cnc3c(N)nc(NCCc4ccc(CCC(=O)O)cc4)nc32)[C@H](O)[C@@H]1O [CGS21680, 3-[4-[2-[[6-amino-9-[(2R,3R,4S,5S)-5-(ethylcarbamoyl)-3,4-dihydroxy-oxolan-2-yl]purin-2-yl]amino]ethyl]phenyl]propanoic acid, reference compound]
Reversal of CCI-induced allodynia compared with ATL313 ([1]; intrathecal, at a 10-fold higher dose than that of ATL313, P<0.001): comparable reversal of CCI-induced allodynia, in both duration and intensity

Nc1nc(C#CCC2CCN(C(=O)OCC3CC3)CC2)nc2c1ncn2C1OC(C(=O)NC2CC2)C(O)C1O (centres unmarked) [Compound C, 4-{3-[6-Amino-9-(5-cyclopropylcarbamoyl-3,4-dihydroxy-tetrahydro-furan-2-yl)-9H-purin-2-yl]-prop-2-ynyl}-piperidine-1-carboxylic acid cyclopropylmethyl ester]
Effect on CCI-induced allodynia relative to ATL313 and CGS21680 ([1]; intrathecal): ranged between ATL313 (1 μM) and CGS21680 (1 μM)

COc1ccccc1OC(=O)N1CCC(CC#Cc2nc(N)c3ncn(C4OC(C(=O)NC5CC5)C(O)C4O)c3n2)CC1 (centres unmarked) [Compound A, 4-{3-[6-Amino-9-(5-cyclopropylcarbamoyl-3,4-dihydroxy-tetrahydro-furan-2-yl)-9H-purin-2-yl]-prop-2-ynyl}-piperidine-1-carboxylic acid 2-methoxyphenyl ester]
Effect on CCI-induced allodynia relative to ATL313 and CGS21680 ([1]; intrathecal): ranged between ATL313 (1 μM) and CGS21680 (1 μM)

COC(=O)N1CCC(CC#Cc2nc(N)c3ncn(C4OC(C(=O)NC5CC5)C(O)C4O)c3n2)CC1 (centres unmarked) [ATL313, 4-{3-[6-amino-9-(5-cyclopropylcarbamoyl-3,4-dihydroxy-tetrahydro-furan-2-yl)-9H-purin-2-yl]-prop-2-ynyl}-piperidine-1-carboxylic acid methyl ester]
Effect on CCI-induced allodynia ([1]; 0.1 uM in 5 uL intrathecal, compared to saline-injected animals, P>0.05): no significant impact on CCI-induced allodynia
Analgesic effect in sham-operated animals ([1]; sham-operated animals, intrathecal, P>0.05): no effect on sham-operated animals
Duration of reversal of allodynia [1, 3]: at least 4 weeks
Effect on CCI-induced allodynia (mechanical sensitivity to von Frey filaments) [1, 3]: partial reversal of the allodynia

Nc1nc(C#CCC2CCN(C(=O)OC3CCC3)CC2)nc2c1ncn2C1OC(C(=O)NC2CC2)C(O)C1O (centres unmarked) [Compound B, 4-{3-[6-Amino-9-(5-cyclopropylcarbamoyl-3,4-dihydroxy-tetrahydro-furan-2-yl)-9H-purin-2-yl]-prop-2-ynyl}-piperidine-1-carboxylic acid cyclobutyl ester]
Effect on CCI-induced allodynia relative to ATL313 and CGS21680 ([1]; intrathecal): ranged between ATL313 (1 μM) and CGS21680 (1 μM)

Nc1nc(NCCc2ccc(O)cc2)nc2nc(-c3ccco3)nn12 [ZM241385]
Effect of co-administered antagonist on the ATL313 effect on CCI-induced allodynia ([2]; ZM241385 10 uM co-administered intrathecally with ATL313 1 uM, 10-14 days after CCI surgery, P<0.0001): abolishes the effect of ATL313 on the CCI-induced allodynia
Effect of antagonist on the established reversal of allodynia ([2]; ZM241385 10 uM intrathecal, one week after ATL313 1 uM i.t.): had no effect on reversal of the allodynia induced by the previous ATL313 administration
Effect of antagonist alone on CCI-induced allodynia ([2]; ZM241385 10 uM intrathecal, without agonist, P>0.05): has no effect on the CCI-induced allodynia
